In patent US4022912A, “Use of 1-decarboxy-1-hydroxymethyl-PGE1 in therapeutic bronchodilation” (priority 1976, dated 1977):
Entries after “also recorded” stand apart in the source; their conditions may differ. Read-outs that look alike come from different tables or passages of the source.

Legend:
[1] = system: mobilization of free fatty acids induced by epinephrine; conditions: U.S. Pat. No. 3,636,120 (Pike); cited from earlier work
Guinea Pig Ileum = experiment: Antagonism to PGE1 in the guinea pig ileum in vitro; assay type: cell-based; conditions: for antagonism of the effects of PGE1 in the guinea pig ileum: in vitro
Method: Preparations were placed in tissue chambers filled with Ringer-Tyrode solution at 37° C., bubbled with a mixture of 95% O2 and 5% CO2, and arranged for isometric recording with force displacement transducers. The segments were stretched to an initial tension of 1 g, and responses to a test concentration of acetylcholine (0.1 mcg/ml) were obtained every 5 minutes until two similar responses were observed (usually after four administrations). Responses to PGE1
(0.1 mcg/ml) were obtained and recorded at 5 minute intervals before and after 100 seconds of incubation with 0.1 and 1.0 mcg/ml of 1-decarboxy-1-hydroxymethyl-PGE1. Any direct contractile effect of the test compound was recorded and evaluated in terms of mean values in grams of tension developed at each concentration. Responses to the agonist observed after incubation with the test compound were expressed as percent of control responses. All drugs were administered in a volume of 0.1 ml.

Conscious Cat = experiment: Tracheobronchial irritancy (coughing) in conscious cats after inhalation; assay type: in vivo; conditions: for tracheobronchial irritancy compared with PGE1: inhalation, equivalent concentrations/dosages
Method: A test drug was given at concentrations from 0.01 μg/ml (up to 100 μg/ml) at two hour intervals exposing each cat for up to 10 minutes each time. If coughing occurred no further challenge was given that day. Two to three days later the other test substance was given. The aerosol was delivered from an ultrasonic nebulizer via rubber tubing connected to a face mask fitted to the cat. The animal was mildly restrained. Coughing was noted by an observer and also monitored by a microphone connected to a tape recorder.

[2] = system: Histamine-Induced Bronchoconstriction; experiment: Inhibition of histamine-induced bronchoconstriction in the anesthetized guinea pig in vivo by intravenous administration; conditions: for ED50: Cavia porcellus, iv, i.v. 15 seconds prior to histamine
Method: (§1) Male albino guinea pigs (400-600 g; Dunkin-Hartley Strain) were anesthetized with pentobarbitone sodium (60 mg/kg intraperitoneally).
(§2) Trachea, external jugular vein and carotid artery were cannulated for recording ventilation, intravenous administration of drugs, and blood pressure respectively. The animals were artificially respired throughout the experiment. Electrocardiograms were also recorded. Respiratory flow was charted on a twin-channel recorder fixed to an SE differential pressure transducer.
(§3) Histamine was administered intravenously at 5 minute intervals. The test drug was administered intravenously 15 seconds prior to histamine in order to inhibit bronchoconstriction.

platelet aggregation = conditions: U.S. Pat. No. 3,636,120 (Pike); cited from earlier work
[3] = system: Convulsions Induced by Inhaled Histamine; experiment: Delay of convulsions induced by inhaled histamine in conscious guinea pigs; assay type: in vivo, guinea pig
Method: Conscious male albino guinea pigs (Dunkin-Hartley strain) weighing 200-300 g were placed (singly) in a 5-liter transparent chamber for 1 minute and subjected to an aerosol of vehicle or test drug in solution, plus histamine (1% w/v).
The time from the beginning of the administration of the aerosol to the start of the first convulsion (when the guinea pig is immediately removed from the aerosol) is the pre-convulsion time. Twenty-four hours later the general procedure was repeated. Guinea pigs treated with the test drug on the first day were treated with vehicle on the second day and vice versa in a cross-over design. Maximum time allowed in the aerosol was 10 minutes. An ultrasonic humidifier was used to produce the aerosol.

[4] = system: Histamine-Induced Bronchoconstriction; experiment: Inhibition of intravenous histamine-induced bronchoconstriction in the anesthetized guinea pig by inhalational administration; assay type: in vivo
Method: as §1, §2, §3
Details of the procedure of this example are the same as those in preceding Example 2 with the exception that the test compounds were delivered in aerosol form into the trachea of the test aminals.

[5] = system: Guinea Pig Tracheal Tissue; experiment: Relaxation of guinea pig tracheal tissue in vitro; assay type: cell-based; conditions: for Relaxation (×80) (± S.E.): Table B, standard error in parentheses
Method: Male guinea pigs weighing 200-500 g were killed by a blow on the head. A 20 mm length of trachea was dissected from each of the animals, transferred to a petri dish containing Krebs' solution aerated with 95% O2 and 5% CO2 at 37° C., and cut longitudinally opposite the tracheal muscle. The tissue was then cut transversely three quarters of the distance across; a second cut in the opposite direction again three quarters of the distance across the tissue was made, and the procedure was continued for the whole tissue. The ends of the trachea were pulled to form a zig-zag shaped strip. The tracheal strips used in the experiment were approximately 30 mm when extended under 0.25-0.5 g load in a tissue bath. Cotton thread was tied to one end of the tissues, and linen thread to the other. The tissues were attached via the linen thread to a glass hook in a 5 ml isolated tissue bath containing Krebs' solution at 37° C. aerated with a mixture of 95% O2 and 5% CO2. The opposite ends were attached via cotton thread to an isotonic transducer. The load on the transducer lever was small, usually 0.3 g, with a range of 0.25-0.5 g; and the magnification high, 80-fold using an appropriate twin-channel pen recorder. A minimum of thirty minutes was allowed before applying a drug to the tissues. Drugs were then applied (in volumes of 0.5 ml) at thirty minute intervals, being in contact with the tissue for five minutes followed by an overflow washout time of twenty seconds.

[6] = listed as 1-decarboxy-1-methylhydroxy-PGE1
[7] = 0.10 μg/ml of stock solution aerosolized
[8] = 1.00 μg/ml of stock solution aerosolized

For `CCCCC[C@H](O)/C=C/[C@H]1[C@H](O)CC(=O)[C@@H]1CCCCCCCO` [1-Decarboxy-1-Hydroxymethyl-PGE1, 15(S)-1,11α,15α-trihydroxy-9-oxo-13-trans-prostene], the “effect on mobilization of free fatty acids induced by epinephrine” value [1] is given as “antagonizes mobilization of free fatty acids induced by epinephrine”, the “Direct Effect, gm tension” value (Guinea Pig Ileum; 0.1 mcg/ml) is given as 0.0 gm tension and the “Direct Effect, gm tension” value (Guinea Pig Ileum; 1.0 mcg/ml) is given as 0.0 gm tension. For the same molecule, the inhibition at 0.1 µg/mL (Guinea Pig Ileum; Cavia porcellus, 100 s, read-out: %-Blockade of Tissue Response to 0.1 mcg/ml of PGE1, 0.1 mcg/ml, 100 seconds of incubation) was 38%, the inhibition at 1 µg/mL (Guinea Pig Ileum; Cavia porcellus, 100 s, read-out: %-Blockade of Tissue Response to 0.1 mcg/ml of PGE1, 1.0 mcg/ml, 100 seconds of incubation) was 100% and the “direct effect on the tissue” value (Guinea Pig Ileum; at the tested concentrations) was “no effect on the tissue at the tested concentrations”. For the same molecule, the “antagonism of the effects of PGE1 in the guinea pig ileum” value (Guinea Pig Ileum) was “inhibits the effects of PGE1 in guinea pig ileum tissue in vitro”, the “antagonism of the effects of PGE1 in the guinea pig ileum” value (Guinea Pig Ileum; [6]) was “antagonizes the effects of PGE1 in the guinea pig ileum” and the “Incidence of Coughing in a Female (F) Cat” value (Conscious Cat; [7]) was 0/3. For the same molecule, the “Incidence of Coughing in a Male (M) Cat” value (Conscious Cat; [7]) was 0/3, the “Incidence of Coughing in a Female (F) Cat” value (Conscious Cat; [8]) was 1/3 and the “Incidence of Coughing in a Male (M) Cat” value (Conscious Cat; [8]) was 0/3. The “Incidence of Coughing in a Male (M) Cat” value (Conscious Cat; 10.00 μg/ml of stock solution aerosolized) was 0/3, the “Incidence of Coughing in a Male (M) Cat” value (Conscious Cat; 100.00 μg/ml of stock solution aerosolized) was 0/2 and the “tracheobronchial irritancy compared with PGE1” value (Conscious Cat) was “much lower incidence of tracheobronchial irritancy than does PGE1 at equivalent concentrations; also recorded: does not cause tracheal-bronchial irritation at equivalent dosages”. The “tracheobronchial irritancy compared with PGE1” value (Conscious Cat; [6]) was “less irritating than PGE1”, the “Ratio of ID50 Values (A/B)” value ([2]; A = PGE1, B = 1-decarboxy-1-hydroxymethyl-PGE1, Experiment No. 1) was 1.14 and the “Ratio of ID50 Values (A/B)” value ([2]; A = PGE1, B = 1-decarboxy-1-hydroxymethyl-PGE1, Experiment No. 2) was 1.25. The “Ratio of ID50 Values (A/B)” value ([2]; A = PGE1, B = 1-decarboxy-1-hydroxymethyl-PGE1, Experiment No. 3) was 1.17, the “Ratio of ID50 Values (A/B)” value ([2]; A = PGE1, B = 1-decarboxy-1-hydroxymethyl-PGE1, Experiment No. 4) was 1.14 and the “Ratio of ID50 Values (A/B)” value ([2]; A = PGE1, B = 1-decarboxy-1-hydroxymethyl-PGE1, Experiment No. 5) was 1.05. For the same molecule, the “Ratio of ID50 Values (A/B), Mean” value ([2]; A = PGE1, B = 1-decarboxy-1-hydroxymethyl-PGE1, mean) was 1.17, the ED50 ([2]; Experiment No. 1, read-out: Dose I.V. inhibiting bronchoconstriction by 50% (ID50)) was 0.529 µg/kg and the ED50 ([2]; Experiment No. 2, read-out: Dose I.V. inhibiting bronchoconstriction by 50% (ID50)) was 0.733 µg/kg. It also gave an ED50 ([2]; Experiment No. 3, read-out: Dose I.V. inhibiting bronchoconstriction by 50% (ID50)) of 0.225 µg/kg, an ED50 ([2]; Experiment No. 4, read-out: Dose I.V. inhibiting bronchoconstriction by 50% (ID50)) of 0.756 µg/kg and an ED50 ([2]; Experiment No. 5, read-out: Dose I.V. inhibiting bronchoconstriction by 50% (ID50)) of 0.193 µg/kg. For the same molecule, the ED50 ([2]; mean of experiments 1-5, read-out: Dose I.V. inhibiting bronchoconstriction by 50% (ID50), Mean) was 0.495 µg/kg, the “effect on platelet aggregation” value (platelet aggregation) was “inhibits platelet aggregation” and the “Prolongation of Preconvulsion Time” value ([3]; Expt. 1A, 0.10 μg/ml stock solution aerosolized, P <0.02) was 99 s. The “Prolongation of Preconvulsion Time” value ([3]; Expt. 1A, 0.50 μg/ml stock solution aerosolized, P <0.001) was 140 s, the “Prolongation of Preconvulsion Time” value ([3]; Expt. 1A, 2.50 μg/ml stock solution aerosolized, P <0.01) was 141 s and the “Prolongation of Preconvulsion Time” value ([3]; Expt. 1A, 10.00 μg/ml stock solution aerosolized, P <0.02) was 181 s. For the same molecule, the “Prolongation of Preconvulsion Time” value ([3]; Expt. 2A, 0.01 μg/ml stock solution aerosolized, P <0.01) was 54 s, the “Prolongation of Preconvulsion Time” value ([3]; Expt. 2A, 0.10 μg/ml stock solution aerosolized, P <0.05) was 41 s and the “Prolongation of Preconvulsion Time” value ([3]; Expt. 2A, 1.00 μg/ml stock solution aerosolized, P <0.02) was 108 s. The “Prolongation of Preconvulsion Time” value ([3]; Expt. 2A, 10.00 μg/ml stock solution aerosolized, P <0.02) was 198 s, the “Prolongation of Preconvulsion Time” value ([3]; Expt. 2A, 25.00 μg/ml stock solution aerosolized, P <0.001) was 302 s and the “Precent Inhibition of Histamine-Induced Bronchoconstriction” value ([4]; 0.001 μg/ml in stock solution aerosolized, inhalation) was 24%. The “times more effective than PGE1 in inhibition of histamine-induced bronchoconstriction” value ([4]; at 0.001 μg/ml, guinea pig in vivo, relative to PGE1) was 4 times, the “Relaxation (×80) (± S.E.)” value ([5]; 0.001 μg/ml) was 24 (18) mm and the “Relaxation (×80), 1st Tissue” value ([5]; 0.01 μg/ml) was 30 mm. The “Relaxation (×80), 2nd Tissue” value ([5]; 0.01 μg/ml) was 30 mm, the “Relaxation (×80) (± S.E.)” value ([5]; 0.010 μg/ml) was 59 (30) mm and the “Relaxation (×80), Mean Response” value ([5]; 0.01 μg/ml) was 30 mm. For the same molecule, the “Relaxation (×80), 1st Tissue” value ([5]; 0.10 μg/ml) was 113 mm, the “Relaxation (×80), 2nd Tissue” value ([5]; 0.10 μg/ml) was 93 mm and the “Relaxation (×80) (± S.E.)” value ([5]; 0.100 μg/ml) was 79 (21) mm. For the same molecule, the “Relaxation (×80), Mean Response” value ([5]; 0.10 μg/ml) was 104 mm, the “Relaxation (×80), 1st Tissue” value ([5]; 1.00 μg/ml) was 153 mm and the “Relaxation (×80), 2nd Tissue” value ([5]; 1.00 μg/ml) was 173 mm. For the same molecule, the “Relaxation (×80) (± S.E.)” value ([5]; 1.000 μg/ml) was 104 (14) mm, the “Relaxation (×80), Mean Response” value ([5]; 1.00 μg/ml) was 163 mm and the “Relaxation (×80), 1st Tissue” value ([5]; 10.00 μg/ml) was 146 mm. For the same molecule, the “Relaxation (×80), 2nd Tissue” value ([5]; 10.00 μg/ml) was 199 mm, the “Relaxation (×80) (± S.E.)” value ([5]; 10.000 μg/ml) was 105 (35) mm and the “Relaxation (×80), Mean Response” value ([5]; 10.00 μg/ml) was 172 mm. For the same molecule, the “times more potent than PGE1 in relaxing guinea pig tracheal tissue” value ([5]; at 0.001 μg/ml, relative to PGE1) was 24 times, the “comparative effectiveness vs PGE1 in relaxation of tracheal tissue” value ([5]; equivalent concentrations) was “clearly more effective at equivalent concentrations” and the “times more potent than PGE1 in relaxing guinea pig tracheal tissue in vitro” value ([5]; relative to PGE1, no concentration stated for this clause) was 24 times.
